Experiments:
[1] = target: T1, c-KIT (Homo sapiens, UniProt P10721); test: c-KIT recombinant enzyme kinase assay (AlphaScreen); type: biochemical; conditions: 100 ATP, 8 pt
T1 construct: purchased Millipore 14-559K
Summary of the method: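 AlphaScreen proximity signal at 580 nm, from PY20 acceptor and streptavidin donor beads, measures tyrosine phosphorylation of 30 nM biotin-poly(Glu4-Tyr) peptide by recombinant kinase. ATP: 10 μM (FLT3 mutants), 100 μM (c-KIT). IC50 from loss of signal.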

[2] = test system: MOLM-14 D835Y (endogenous FLT3 ITD and transfected FLT3 D835Y); test: MOLM-14 D835Y cell proliferation assay (CellTiter-Glo); type: cell-based; conditions: Homo sapiens, MOLM-14, 72 h; 3 d growth, GMean
Summary of the method: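 MOLM-14 cells (FLT3 ITD) carrying D835Y or F691L, 1×10^4 cells/well, eight 1:3 dilutions from 1 μM final, 0.2% DMSO, 3 days at 37 °C, 5% CO2. Viability by CellTiter-Glo luminescence (ATP content); IC50 from concentration-response.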

T1 sequence (P10721 26-976): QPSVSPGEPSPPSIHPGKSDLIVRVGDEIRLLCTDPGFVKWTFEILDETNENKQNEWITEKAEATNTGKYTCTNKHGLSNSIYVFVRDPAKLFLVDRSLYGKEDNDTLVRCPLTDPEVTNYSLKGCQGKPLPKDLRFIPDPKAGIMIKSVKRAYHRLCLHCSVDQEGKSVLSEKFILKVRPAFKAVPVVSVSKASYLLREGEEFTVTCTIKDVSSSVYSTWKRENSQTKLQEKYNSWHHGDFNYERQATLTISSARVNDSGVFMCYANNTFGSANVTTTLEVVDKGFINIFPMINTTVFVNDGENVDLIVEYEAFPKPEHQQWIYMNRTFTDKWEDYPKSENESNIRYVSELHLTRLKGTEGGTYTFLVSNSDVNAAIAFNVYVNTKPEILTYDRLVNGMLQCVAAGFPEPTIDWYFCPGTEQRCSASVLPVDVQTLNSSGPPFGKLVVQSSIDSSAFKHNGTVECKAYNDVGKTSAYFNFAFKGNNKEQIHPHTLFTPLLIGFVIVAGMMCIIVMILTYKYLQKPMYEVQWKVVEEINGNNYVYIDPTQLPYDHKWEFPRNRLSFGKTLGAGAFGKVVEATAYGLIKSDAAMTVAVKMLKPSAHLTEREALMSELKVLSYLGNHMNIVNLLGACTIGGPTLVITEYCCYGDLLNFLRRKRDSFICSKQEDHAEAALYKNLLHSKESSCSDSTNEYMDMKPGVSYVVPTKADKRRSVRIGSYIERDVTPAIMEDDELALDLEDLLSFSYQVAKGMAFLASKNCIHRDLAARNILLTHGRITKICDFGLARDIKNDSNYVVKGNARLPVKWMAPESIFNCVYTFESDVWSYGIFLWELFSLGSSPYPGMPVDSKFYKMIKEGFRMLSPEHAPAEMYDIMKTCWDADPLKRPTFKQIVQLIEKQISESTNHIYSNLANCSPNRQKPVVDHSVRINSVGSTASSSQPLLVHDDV

Row | IC50 [1] [µM] | IC50 [2] [µM] | SMILES
1 | 0.0001 to 10 | 0.0001 to 10 | COCCn1cc(Nc2ncc(-c3ccc(CC(=O)Nc4ccc(C(F)(F)F)cn4)c(F)c3)cn2)cn1 [Compound P-0269, 2-[2-fluoro-4-[2-[[1-(2-methoxyethyl)pyrazol-4-yl]amino]pyrimidin-5-yl]phenyl]-N-[5-(trifluoromethyl)-2-pyridyl]acetamide]
2 | 0.0001 to 10 | 0.0001 to 10 | COCCn1cc(Nc2ncc(-c3ccc(CC(=O)Nc4cc(C(F)(F)F)ccn4)c(F)c3)cn2)cn1 [Compound P-0270, 2-[2-fluoro-4-[2-[[1-(2-methoxyethyl)pyrazol-4-yl]amino]pyrimidin-5-yl]phenyl]-N-[4-(trifluoromethyl)-2-pyridyl]acetamide]
3 | 0.0001 to 10 | 0.0001 to 10 | COCCn1cc(Nc2ncc(-c3ccc(CC(=O)Nc4cnc(OC)c(C(F)(F)F)c4)cc3)cn2)cn1 [Compound P-0271, 2-[4-[2-[[1-(2-methoxyethyl)pyrazol-4-yl]amino]pyrimidin-5-yl]phenyl]-N-[6-methoxy-5-(trifluoromethyl)-3-pyridyl]acetamide]
4 | 0.0001 to 10 | 0.0001 to 10 | COCCn1cc(Nc2ncc(-c3ccc(CC(=O)Nc4ccc(C(F)(F)F)nc4)cc3)cn2)cn1 [Compound P-0273, 2-[4-[2-[[1-(2-methoxyethyl)pyrazol-4-yl]amino]pyrimidin-5-yl]phenyl]-N-[6-(trifluoromethyl)-3-pyridyl]acetamide]
5 | 0.0001 to 10 | 0.0001 to 10 | COCCn1cc(Nc2ncc(-c3ccc(CC(=O)Nc4ccc(C(F)(F)F)cn4)cc3)cn2)cn1 [Compound P-0274, 2-[4-[2-[[1-(2-methoxyethyl)pyrazol-4-yl]amino]pyrimidin-5-yl]phenyl]-N-[5-(trifluoromethyl)-2-pyridyl]acetamide]

Continued, compound first:

Row | SMILES | IC50 [1] [µM] | IC50 [2] [µM]
6 | COc1ncc(NC(=O)Cc2ccc(-c3cnc4[nH]nc(C5CC5)c4c3)cc2F)cc1C(F)(F)F [Compound P-0262, 2-[4-(3-cyclopropyl-1H-pyrazolo[3,4-b]pyridin-5-yl)-2-fluoro-phenyl]-N-[6-methoxy-5-(trifluoromethyl)-3-pyridyl]acetamide] | 0.0001 to 10 | 0.0001 to 10
7 | COc1ncc(NC(=O)Cc2ccc(-c3cnc4[nH]nc(C5CC5)c4c3)cc2)cc1C(F)(F)F [Compound P-0263, 2-[4-(3-cyclopropyl-1H-pyrazolo[3,4-b]pyridin-5-yl)phenyl]-N-[6-methoxy-5-(trifluoromethyl)-3-pyridyl]acetamide] | 0.0001 to 10 | 0.0001 to 10
8 | COCCn1cc(Nc2ncc(-c3ccc(CC(=O)Nc4cnc(OC)c(C(F)(F)F)c4)c(F)c3)cn2)cn1 [Compound P-0265, 2-[2-fluoro-4-[2-[[1-(2-methoxyethyl)pyrazol-4-yl]amino]pyrimidin-5-yl]phenyl]-N-[6-methoxy-5-(trifluoromethyl)-3-pyridyl]acetamide] | 0.0001 to 10 | 0.0001 to 10
9 | COCCn1cc(Nc2ncc(-c3ccc(CC(=O)Nc4cnc(Cl)c(C(F)(F)F)c4)c(F)c3)cn2)cn1 [Compound P-0266, N-[6-chloro-5-(trifluoromethyl)-3-pyridyl]-2-[2-fluoro-4-[2-[[1-(2-methoxyethyl)pyrazol-4-yl]amino]pyrimidin-5-yl]phenyl]acetamide] | 0.0001 to 10 | 0.0001 to 10
10 | COCCn1cc(Nc2ncc(-c3ccc(CC(=O)Nc4cncc(C(F)(F)F)c4)c(F)c3)cn2)cn1 [Compound P-0267, 2-[2-fluoro-4-[2-[[1-(2-methoxyethyl)pyrazol-4-yl]amino]pyrimidin-5-yl]phenyl]-N-[5-(trifluoromethyl)-3-pyridyl]acetamide] | 0.0001 to 10 | 0.0001 to 10
11 | COCCn1cc(Nc2ncc(-c3ccc(CC(=O)Nc4ccc(C(F)(F)F)nc4)c(F)c3)cn2)cn1 [Compound P-0268, 2-[2-fluoro-4-[2-[[1-(2-methoxyethyl)pyrazol-4-yl]amino]pyrimidin-5-yl]phenyl]-N-[6-(trifluoromethyl)-3-pyridyl]acetamide] | 0.0001 to 10 | 0.0001 to 10

— patent US10160747B2, “Compounds and methods for kinase modulation, and indications therefor” (Plexxikon Inc., priority 2016, dated 2018)
